Measured values published in PubChem BioAssay AID1963828 (Molecular Pharmacology Branch, DTP, NCI, 2024).

System: 991263-137-R1-J2-PDC complex spheroid viability
Test: Anticancer human tumor 991263-137-R1-J2-PDC patient-derived colon adenocarcinoma cell line growth inhibition [POLQ]
Details: for IC50: curve of first compound; for viability, T/C: stronger effect = lower value
In short: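 Complex spheroid viability model combining PDC tumour cells with endothelial (HUVEC) and MSC stromal cells. Novobiocin, ART-558 or RP6685 were tested singly and in combination with standard and investigational anticancer drugs. Each was titrated in half-log steps from near clinical Cmax, or from 10 microM where Cmax was unknown.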

[1] = second compound 0.0316 µM, first compound 0.0316 µM
[2] = second compound 0.0316 µM, first compound 0.1 µM
[3] = second compound 0.0316 µM, first compound 0.316 µM
[4] = second compound 0.0316 µM, first compound 1 µM
[5] = second compound 0.0316 µM, first compound 3.16 µM
[6] = second compound 0.0316 µM, first compound 10 µM
[7] = second compound 0.1 µM, first compound 0.0316 µM
[8] = second compound 0.1 µM, first compound 0.1 µM
[9] = second compound 0.1 µM, first compound 0.316 µM
[10] = second compound 0.1 µM, first compound 1 µM
[11] = second compound 0.1 µM, first compound 3.16 µM
[12] = second compound 0.1 µM, first compound 10 µM
[13] = second compound 0.316 µM, first compound 0.0316 µM
[14] = second compound 0.316 µM, first compound 0.1 µM
[15] = second compound 0.316 µM, first compound 0.316 µM
[16] = second compound 0.316 µM, first compound 1 µM
[17] = second compound 0.316 µM, first compound 3.16 µM
[18] = second compound 0.316 µM, first compound 10 µM
[19] = second compound 1 µM, first compound 0.0316 µM
[20] = second compound 1 µM, first compound 0.1 µM
[21] = second compound 1 µM, first compound 0.316 µM
[22] = second compound 1 µM, first compound 1 µM
[23] = second compound 1 µM, first compound 3.16 µM
[24] = second compound 1 µM, first compound 10 µM
[25] = second compound 3.16 µM, first compound 0.0316 µM
[26] = second compound 3.16 µM, first compound 0.1 µM
[27] = second compound 3.16 µM, first compound 0.316 µM
[28] = second compound 3.16 µM, first compound 1 µM
[29] = second compound 3.16 µM, first compound 3.16 µM
[30] = second compound 3.16 µM, first compound 10 µM
[31] = second compound 10 µM, first compound 0.0316 µM
[32] = second compound 10 µM, first compound 0.1 µM
[33] = second compound 10 µM, first compound 0.316 µM
[34] = second compound 10 µM, first compound 1 µM
[35] = second compound 10 µM, first compound 3.16 µM
[36] = second compound 10 µM, first compound 10 µM
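Also: spheroids exposed to compounds for 7 days before readout.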
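For viability, T/C in this document: 100% = DMSO vehicle control viability.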

For COc1cccc2c1C(=O)c1c(O)c3c(c(O)c1C2=O)CC(O)(C(=O)CO)CC3OC1CC(N)C(O)C(C)O1 (stereo unspecified) + COC1C(OC(N)=O)C(O)C(Oc2ccc3c(O)c(NC(=O)c4ccc(O)c(CC=C(C)C)c4)c(=O)oc3c2C)OC1(C)C, the IC50 (second compound 0.0316 µM) was 1540 nM, the IC50 (second compound 0.1 µM) was 1210 nM and the IC50 (second compound 0.316 µM) was 1180 nM. For the same compound, the IC50 (second compound 1 µM) was 1130 nM, the IC50 (second compound 3.16 µM) was 1600 nM and the IC50 (second compound 10 µM) was 1030 nM. The viability, T/C [1] was 116%, the viability, T/C [2] was 101% and the viability, T/C [3] was 93.3%. It also gave a viability, T/C [4] of 55.7%, a viability, T/C [5] of 38.1% and a viability, T/C [6] of 31.1%. The viability, T/C [7] was 104%, the viability, T/C [8] was 115% and the viability, T/C [9] was 92.5%. The viability, T/C [10] was 51.9%, the viability, T/C [11] was 45.1% and the viability, T/C [12] was 34.9%. The viability, T/C [13] was 107%, the viability, T/C [14] was 116% and the viability, T/C [15] was 76%. It also gave a viability, T/C [16] of 55.4%, a viability, T/C [17] of 43.1% and a viability, T/C [18] of 33.1%. For the same compound, the viability, T/C [19] was 101%, the viability, T/C [20] was 120% and the viability, T/C [21] was 93.1%. It also gave a viability, T/C [22] of 51.5%, a viability, T/C [23] of 39.6% and a viability, T/C [24] of 27.4%. It also gave a viability, T/C [25] of 109%, a viability, T/C [26] of 109% and a viability, T/C [27] of 92.2%. It also gave a viability, T/C [28] of 56.6%, a viability, T/C [29] of 41.9% and a viability, T/C [30] of 31.8%. The viability, T/C [31] was 88.1%, the viability, T/C [32] was 106% and the viability, T/C [33] was 102%. It also gave a viability, T/C [34] of 50.1%, a viability, T/C [35] of 56.2% and a viability, T/C [36] of 33.9%.

With Cn1ncnc1[C@H]1c2n[nH]c(=O)c3cc(F)cc(c23)N[C@@H]1c1ccc(F)cc1 + COC1C(OC(N)=O)C(O)C(Oc2ccc3c(O)c(NC(=O)c4ccc(O)c(CC=C(C)C)c4)c(=O)oc3c2C)OC1(C)C the IC50 (second compound 0.0316 µM) was over 100 nM, the IC50 (second compound 0.1 µM) was over 100 nM and the IC50 (second compound 0.316 µM) was over 100 nM. The IC50 (second compound 1 µM) was over 100 nM, the IC50 (second compound 3.16 µM) was over 100 nM and the IC50 (second compound 10 µM) was over 100 nM. The viability, T/C (second compound 0.0316 µM, first compound 0.000316 µM) was 122%, the viability, T/C (second compound 0.0316 µM, first compound 0.001 µM) was 107% and the viability, T/C (second compound 0.0316 µM, first compound 0.00316 µM) was 104%. For the same compound, the viability, T/C (second compound 0.0316 µM, first compound 0.01 µM) was 85.5%, the viability, T/C [1] was 79.3% and the viability, T/C [2] was 107%. It also gave a viability, T/C (second compound 0.1 µM, first compound 0.000316 µM) of 99.8%, a viability, T/C (second compound 0.1 µM, first compound 0.001 µM) of 117% and a viability, T/C (second compound 0.1 µM, first compound 0.00316 µM) of 97.7%. The viability, T/C (second compound 0.1 µM, first compound 0.01 µM) was 83.8%, the viability, T/C [7] was 105% and the viability, T/C [8] was 102%. For the same compound, the viability, T/C (second compound 0.316 µM, first compound 0.000316 µM) was 95%, the viability, T/C (second compound 0.316 µM, first compound 0.001 µM) was 122% and the viability, T/C (second compound 0.316 µM, first compound 0.00316 µM) was 75.4%. For the same compound, the viability, T/C (second compound 0.316 µM, first compound 0.01 µM) was 108%, the viability, T/C [13] was 109% and the viability, T/C [14] was 110%. The viability, T/C (second compound 1 µM, first compound 0.000316 µM) was 98.1%, the viability, T/C (second compound 1 µM, first compound 0.001 µM) was 117% and the viability, T/C (second compound 1 µM, first compound 0.00316 µM) was 94.2%. For the same compound, the viability, T/C (second compound 1 µM, first compound 0.01 µM) was 106%, the viability, T/C [19] was 71.5% and the viability, T/C [20] was 109%. For the same compound, the viability, T/C (second compound 3.16 µM, first compound 0.000316 µM) was 95.9%, the viability, T/C (second compound 3.16 µM, first compound 0.001 µM) was 109% and the viability, T/C (second compound 3.16 µM, first compound 0.00316 µM) was 92.1%. The viability, T/C (second compound 3.16 µM, first compound 0.01 µM) was 102%, the viability, T/C [25] was 109% and the viability, T/C [26] was 110%. The viability, T/C (second compound 10 µM, first compound 0.000316 µM) was 95.7%, the viability, T/C (second compound 10 µM, first compound 0.001 µM) was 110% and the viability, T/C (second compound 10 µM, first compound 0.00316 µM) was 121%. For the same compound, the viability, T/C (second compound 10 µM, first compound 0.01 µM) was 98%, the viability, T/C [31] was 113% and the viability, T/C [32] was 95.8%.

O=c1[nH]cc(F)c(=O)[nH]1 + Nc1ccc(C#CCN(C(=O)Cc2ncc(C(F)(F)F)cc2C(F)(F)F)c2ccc(F)cc2)nn1 was tested, and the IC50 (second compound 0.0316 µM) was over 10000 nM, the IC50 (second compound 0.1 µM) was over 10000 nM and the IC50 (second compound 0.316 µM) was over 10000 nM. The IC50 (second compound 1 µM) was over 10000 nM, the IC50 (second compound 3.16 µM) was over 10000 nM and the IC50 (second compound 10 µM) was over 10000 nM. For the same compound, the viability, T/C [1] was 118%, the viability, T/C [2] was 112% and the viability, T/C [3] was 96.5%. The viability, T/C [4] was 97.1%, the viability, T/C [5] was 89.4% and the viability, T/C [6] was 89.3%. For the same compound, the viability, T/C [7] was 113%, the viability, T/C [8] was 115% and the viability, T/C [9] was 96%. For the same compound, the viability, T/C [10] was 101%, the viability, T/C [11] was 87% and the viability, T/C [12] was 80.9%. It also gave a viability, T/C [13] of 94.5%, a viability, T/C [14] of 104% and a viability, T/C [15] of 101%. For the same compound, the viability, T/C [16] was 93%, the viability, T/C [17] was 85.6% and the viability, T/C [18] was 86.1%. It also gave a viability, T/C [19] of 117%, a viability, T/C [20] of 114% and a viability, T/C [21] of 111%. For the same compound, the viability, T/C [22] was 90.2%, the viability, T/C [23] was 92.4% and the viability, T/C [24] was 86%. The viability, T/C [25] was 116%, the viability, T/C [26] was 106% and the viability, T/C [27] was 86.9%. For the same compound, the viability, T/C [28] was 89%, the viability, T/C [29] was 92.2% and the viability, T/C [30] was 78.4%. It also gave a viability, T/C [31] of 126%, a viability, T/C [32] of 101% and a viability, T/C [33] of 92.6%. For the same compound, the viability, T/C [34] was 85%, the viability, T/C [35] was 83.4% and the viability, T/C [36] was 84.9%.
